Reference: patent US5082964A, “Selective acetylcholinesterase inhibitors and methods of making and using same” (priority 1986, dated 1992)
pIC50, pKi: −log10 of the molar value. Structures can show the parent of a compound that is named as a salt. Where two headings read alike, the source gives them in different places.

What was measured:
[1] = Solubility, hygroscopicity and stability; format: physicochemical
[2] = system: acetylcholinesterase; assay: Time course inactivation of acetylcholinesterase; format: biochemical
Text: The synthetic preparation of the hydrochloride salt of the tertiary amine inhibitors involves only slight modifications of the general method.

[3] = molecular target: acetylcholinesterase; assay: Ellman assay for acetylcholinesterase inhibition (enzyme source not given); format: biochemical; settings: enzyme source not stated
Text: (§1) Ortho-, meta-, and p-chloromethylphenyl choline carbonates are all examples of inhibitors of acetylcholinesterase in accordance with the present invention. Employing the Ellman assay for acetylcholinesterase inhibition [G. L. Ellman, K. D. Courtney, V. Andrews, Jr., and R. M. Featherstone, Biochem. Pharmacol., vol.

[4] = cited from earlier work
[5] = molecular target: acetylcholinesterase (Electrophorus electricus, UniProt O42275); assay: Ellman assay for acetylcholinesterase inhibition, IC50 (eel-derived enzyme); format: biochemical, electric eel
Text: as §1
From such competitive inhibitor measurements it was possible to determine an IC50 (proportionate amount necessary to reduce acetylcholinesterase activity by 50%) for various inhibitors [meaning those containing the CH2 X group] in this patent. All IC50 values fell between 8 and 200 uM. The exact value varied with the source of the acetylcholinesterase and quantitative measurements were performed on electric eel and human erythrocyte enzyme. Values reported below are with eel-derived enzyme. [drawing 5] where

[6] = molecular target: acetylcholinesterase; assay: Inhibition and inactivation kinetics of acetylcholinesterase, substrate protection; format: biochemical; settings: for Protection against inactivation by substrate acetylcholine: equimolar concentrations of acetylcholine and inhibitor (10 μM each), pre-incubation state
Text: as §1
p-Chloromethylphenyl choline carbonate iodide salt is an example of an inhibitor of acetylcholinesterase in accordance with the present invention.

Chain of acetylcholinesterase (Electrophorus electricus, UniProt O42275) (O42275 24-633): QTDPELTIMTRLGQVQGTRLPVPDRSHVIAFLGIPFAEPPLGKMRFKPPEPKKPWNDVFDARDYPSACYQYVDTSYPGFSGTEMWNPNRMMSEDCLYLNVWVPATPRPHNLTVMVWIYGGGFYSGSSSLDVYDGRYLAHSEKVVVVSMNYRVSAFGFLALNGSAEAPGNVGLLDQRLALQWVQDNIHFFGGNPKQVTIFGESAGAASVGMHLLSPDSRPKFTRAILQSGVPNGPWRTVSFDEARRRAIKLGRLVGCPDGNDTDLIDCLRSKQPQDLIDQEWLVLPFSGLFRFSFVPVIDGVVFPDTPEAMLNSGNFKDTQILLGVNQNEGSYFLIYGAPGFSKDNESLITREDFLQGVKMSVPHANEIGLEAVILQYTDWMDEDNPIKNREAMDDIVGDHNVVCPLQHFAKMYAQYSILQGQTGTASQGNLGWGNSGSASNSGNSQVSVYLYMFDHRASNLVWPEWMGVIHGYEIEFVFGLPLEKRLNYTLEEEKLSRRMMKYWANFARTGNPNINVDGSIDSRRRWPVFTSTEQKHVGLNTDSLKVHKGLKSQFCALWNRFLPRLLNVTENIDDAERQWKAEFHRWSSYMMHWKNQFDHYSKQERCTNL

CN(C)CCOC(=O)Oc1ccc(CCl)cc1
Water solubility [1]: water- soluble | Time course inactivation relative to p-chloromethylphenyl choline carbonate ([2]; compared with p-chloromethylphenyl choline carbonate): time course inactivation similar to that for the p-chloromethylphenyl choline carbonate | Potency relative to the quaternary compound ([2]; deduced from time course data): as potent as the quaternary compound | Inactivation of acetylcholinesterase ([2]; first 15 minutes at 40 uM concentration): 88%

CC(C)(C)CCOC(=O)Oc1ccc(CCl)cc1 [3,3-dimethylbutyl p-chloromethylphenyl carbonate]
pIC50 [3]: 5.10

CCOP(=O)(OCC)OP(=O)(OCC)OP(=O)(OCC)OP(=O)(OCC)OCC (stereo not shown) [hexaethyltetraphosphate]
Solubility in petroleum ethers and kerosene [4]: general insolubility | Solubility in water (known inhibitors) [4]: somewhat soluble in water

C[N+](C)(C)CCOC(=O)Oc1cccc(CCl)c1 [meta-CH2 Cl]
pIC50 [5]: 3.82

C[N+](C)(C)CCOC(=O)Oc1ccccc1CCl [ortho-CH2 Cl]
pIC50 [5]: 4.00

C[N+](C)(C)CCOC(=O)Oc1ccc(CCl)cc1 [p-chloromethyl phenyl choline carbonate iodide salt]
Hygroscopicity ([1]; solid iodide salt): very hygroscopic | pIC50 ([5]; eel-derived enzyme, Ellman assay, read-out: IC50 (proportionate amount necessary to reduce acetylcholinesterase activity by 50%)): 4.40 | pKi ([6]; 25° C., pH=8 phosphate buffer): 4.49 | Km ([6]; 25° C., pH=8 phosphate buffer): 144 µM | Inactivation mode / kinetics ([6]; below inhibitor concentrations of 40 μM): time-dependent manner with pseudo first order kinetics | Protection against inactivation by substrate acetylcholine [6]: offers partial protection against inactivation | Protection against inactivation by substrate acetylcholine ([6]; listed as p-chloromethyl derivative): offers protection against inactivation
